The experiment deals with DNA templates S5P-tDNAR or T7P-tDNAR. In words: Run-off synthesis of small RNA (tRNA^Arg), analytical scale, denaturing gel. Type of experiment: biochemical. The note with it: for N+1 product in tRNA^Arg synthesis: 37° C., 22, 67, 200 nM enzyme; for N+1 product in run-off products: all temperatures (16° C., RT, 37° C.) and KCl concentrations examined. From the text:
FIGS. 10A-10B depict a comparison of T7 and Syn5 RNA polymerase in run-off synthesis of small RNA. A) Effect of temperature and salt concentration on the RNA synthesis by T7 and Syn5 RNA polymerase. B) Similar as A) except that His-tagged T7 RNA polymerase was used.
FIGS. 11A-11B depict synthesis of tRNA^Arg by Syn5 and T7 RNA polymerase. A) Synthesis of tRNA^Arg at analytical scale by various amounts of Syn5 and T7 RNA polymerase. Using radioactively labeled CTP, the tRNA^Arg and N+1 product (as marked) produced by 22, 67, 200 nM Syn5 and T7 RNA polymerase at 37° C. are shown. […] The DNA encoding E. coli tRNA^ArgACG is directly downstream of a Syn5 or T7 promoter for the cognate RNA polymerase to synthesize run-off tRNA transcript. B) Synthesis of tRNA^Arg at preparative scale by Syn5 and T7 RNA polymerase. The sequencing gel is showing the analysis of the total RNA products by Syn5 and T7 RNAP at 37° C. in a 200 µl reaction. RNAs were purified by either ZYMO RNA clean kit or phenol/chloroform extraction followed by ethanol precipitation (P/C/E), as noted on top of the gel. The native tRNA^Arg (with modifications) overexpressed and purified from E. coli cells was used as a size marker. The two major bands in the total RNAs are tRNA^Arg and N+1 product as marked.
FIGS. 12A-12B depict synthesis of long run-off product and the incorporation of modified nucleotides by Syn5 and T7 RNA polymerase. A) On the linearized plasmid template as shown in the schematic, the production of RNA by either RNA polymerase (10 nM) was analyzed on agarose gel as lane 2. […] Lane 3 and 4 show the same RNA synthesis when CTP was replaced by 5mCTP and UTP by Ps-UTP, respectively. B) Incorporation of UTP or Ps-UTP into small RNA by 22, 67, and 200 nM Syn5 and T7 RNA polymerase as analyzed by denaturing TBE polyacrylamide gel. Full-length run-off product and the N+1 product are shown.
DNA templates for transcription assays were either plasmids or dsDNA fragments made of synthesized oligonucleotides. To test the processivity of Syn5 and T7 RNAP, a single Syn5 or T7 promoter plus 3 guanosine downstream of the promoter (Syn5 5′-ATTGGGCACCCGTAAGGG-3′ (SEQ ID NO:1) or T7 5′-[…]-3′) (SEQ ID NO:2) was inserted between the BamHI and XbaI sites of plasmid pUC19 to form pUC19-S5P or pUC19-T7P. The templates for run-off tRNA^Arg synthesis were formed by annealing of two complementary synthesized DNA oligos of which sequences are as following:
For the results shown in FIG. 10, reaction mixtures (10 μl) contained 40 mM Tris-HCl pH 8.0, 6 mM MgCl2, 2 mM spermidine, 10 mM DTT, 200 µm[…]P, GTP and UTP, 10 µM [[…]-^32P]CTP, 1.5 U/µl RNaseOUT™ recombinant ribonuclease inhibitor, 0.5 μM DNA templates S5P-tDNAR or T7P-tDNAR, 100 nM Syn5 or T7 RNAP, and various amount of KCl as noted in the figure. Reactions were carried out at various temperatures of 16° C., room temperature, or 37° C. for 30 min before adding of one unit of DNase I to each reaction mixture and an additional incubation of 15 min at 37° C. Reactions were then terminated by the addition of 4 µl of loading dye containing 95% formamide and 40 mM EDTA. Samples were then heated at 90° C. for 1 min and 4 µl sample each was loaded onto 15% TBE-Urea denaturing polyacrylamide gels. After electrophoresis, gels were dried and analyzed using a Fuji BAS 1000 Bioimaging Analyzer.
For the results shown in FIG. 11A, reaction mixtures (10 μl) containing 40 mM Tris-HCl pH 8.0, 6 mM MgCl2, 2 mM spermidine, 10 mM DTT, 200 µM[…]P, GTP and UTP, 10 µM [[…]-^32P]CTP, 1.5 U/µl RNaseOUT™ recombinant ribonuclease inhibitor, 0.5 μM DNA templates S5P-tDNAR or T7P-tDNAR, and various amount of Syn5 or T7 RNAP were incubated at 37° C. for 30 min before adding of one unit of DNase I to each reaction mixture and an additional incubation of 15 min at 37° C. Reactions were then terminated by the addition of 4 µl of loading dye containing 95% formamide and 40 mM EDTA. […]

Here are results for 2 molecules from patent US11066655B2, “RNA polymerase, methods of purification and methods of use” (President and Fellows of Harvard College, priority 2013, dated 2021).

With “T7 RNAP: RNA polymerase encoded by bacteriophage T7, from New England Biolabs [reference compound]”, the “N+1 product in tRNA^Arg synthesis” value is given as “more N+1 product than the desired product” and the “N+1 product in run-off products” value was “abundant amounts of the N+1 product”. Moreover, the “run-off synthesis at high salt” value (160 mM KCl) was “little activity”. Further, the “products when UTP replaced by Ps-UTP” value (small RNA, radioactively labeled CTP) is listed as “produced predominantly N+1 products”.

B1: Syn5 RNAP: single subunit DNA-dependent RNA polymerase from marine cyanophage Syn5, amino acid sequence SEQ ID NO:23 (protein)
chain: MSFDLIARQLQRETEAAELARKRLQDARREANERSYASSNIESRKAIATFLDPIAQRIGERLFTLRRGTGAVDAAEVYKHLKNADHHHLALITMKTALDVLGKDPEPQIQQLTTAIGRNIQLELRLTYYAEENPELYKQASRFFHAGTGTRQKATVIKLKFNREGIEWDQWSRVTCHKVGQWLMLAMADVTGWIERATDRTSGGRKTKTRICYSREFLQHRDTILAAAEQLAFCQWPMLCPPIEWSNDHNGGYLSEQIRRVNPLIRKTGPLGTRKQGDIPLAMLNNLQGQAYKVNPEVLDIANHCYESNVTVGKFIRHAPLPVPPSPGEDCTEDQLTAYKRARREAEDFNAQISQKNWRTTEVMYVARKYADEASFWMPASFDYRGRVYFLNTALNPQGTDFDKALLYFAEEGPVNEWWLSFHVATTYGLDKETMVNRVQWARDNHELIDRIASDPVRHTEWHDADEPWCFLAACLEYKACVIDGTKQTSGLPIGIDATCSGLQHLAAMTRCGRTAALVNVTPTDKPADAYKTVAQASLKHLPKEQHEWITRKVTKRPVMCTPYGVTMSSARGYIRDQLVKDGHKEDLRSPGVLNGIVKAIFNEAIPEVIPGPVQVMAWLKRSAGQIIDRGDSTITWTTPSGFEVVQDLKKSKTYEVKTRIMGGARIKLQVGDGFTDEPDRDHHKSALAPNVVHSNDASLLHLTFAFWDKPFTVIHDCVLGRSCDMDQMGSDIRLHFAEMYKADVMQDWADQVGVELPVDLIKNTLDIDSVNQSLYFFS
modifications: Amino acid sequence of a cyanophage Syn5 RNAP
Take B1: the “N+1 product in tRNA^Arg synthesis” value is on record as “absence of N+1 product” and the “N+1 product in run-off products” value is “did not contain detectable N+1 product band”. Also, the “run-off synthesis at high salt” value (250 mM KCl) is given as “produces significant amounts of product”.
